Literature values as cited in patent publication US20230210762A1, “TRANSDERMAL DRUG DELIVERY DEVICES HAVING PSILOCYBIN, LYSERGIC ACID DI[…] 3,4-METHYLENEDIOXYMETHA[…] MICROPROTRUSIONS” (Emergex USA Corporation, priority 2020, published 2023).
Where two headings read alike, the source gives them in different places.

What was measured:
[1] = psilocybin administered orally to rats
[2] = not given; remark: listed apart in the source
[3] = not given; remark: listed apart in the source

| Structure (SMILES) | time until psilocin is detectable in plasma (after administration of the parent compound psilocybin) | time to maximum plasma levels [1] | total volume of psilocin absorbed from the digestive tract [1] | ingested psilocybin absorbed through the stomach and intestine ([2]; oral, studies in animals) | detected in urine, time after ingestion ([2]; urine) | time within which most of the drug is eliminated ([2]; via urine, bile and feces) | absorbed psilocybin excreted in the bile and feces ([2]; within 24 hours) | absorbed psilocybin excreted into the urine ([2]; within 24 hours) | solubility in water [3] | half-life (administered intravenously) | half-life (administered orally) | bioavailability (psilocybin ingested orally) |
| --- | --- | --- | --- | --- | --- | --- | --- | --- | --- | --- | --- | --- |
| CN(C)CCc1c[nH]c2cccc(O)c12 [psilocin] | ≤ 20 min | approximately 90 minutes | approximately 50% | – | – | – | – | – | – | – | – | – |
| CN(C)CCc1c[nH]c2cccc(OP(=O)(O)O)c12 [psilocybin, 3-[2-(demethylamino)ethyl-1H-indol-4-yl] dihydrogen phosphate] | – | – | – | about 50% | 7 days | ≤ 8 h | 15-20% | about 65% | soluble | 74.1 ± 19.6 min | 163 ± 64 min | about 50% |
